pIC50: −log10 of the molar value. Read-outs that look alike come from different tables or passages of the source.
Target: T1, arginase (RocF) (Helicobacter pylori, UniProt O25949)
T1 construct: gene HP_1399; RocF with C-terminal His6 tag, apo form, expressed in E. coli BL21 (DE3)
Test: colorimetric arginase assay (ninhydrin detection of L-ornithine), purified apo-RocF heat-activated with Co2+, pH […]
Format: biochemical

T1 sequence (O25949 entry or part of it): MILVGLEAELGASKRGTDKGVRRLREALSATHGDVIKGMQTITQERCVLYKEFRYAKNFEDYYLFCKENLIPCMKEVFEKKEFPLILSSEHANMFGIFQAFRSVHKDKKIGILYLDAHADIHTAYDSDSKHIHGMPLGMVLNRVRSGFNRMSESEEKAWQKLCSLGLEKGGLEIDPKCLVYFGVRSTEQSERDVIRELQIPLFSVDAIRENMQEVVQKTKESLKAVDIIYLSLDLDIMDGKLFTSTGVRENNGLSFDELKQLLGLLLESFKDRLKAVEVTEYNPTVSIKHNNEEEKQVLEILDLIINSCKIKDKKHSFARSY

Row | Compound | pIC50 (read-out: IC50) | pIC50
1 | N=C(NO)NCC[C@H](N)C(=O)O [nor-NOHA] | 3.30 | –
2 | N[C@@H](CSCCB(O)O)C(=O)O [BEC, S-(2-boronoethyl)-L-Cysteine] | – | 3.00
